{"source": "patent US20220267274A1", "about": "“TARGETING PTPN22 IN CANCER THERAPY” (The Johns Hopkins University, priority 2019, published 2022)", "tested_on": "MC38 tumors", "test": "MC38 subcutaneous syngeneic tumor model in WT C57Bl/6J mice", "details": "LTV1 6 mg/kg/dose, treatment analogous to L1", "method": "All mice husbandry, experiments, and euthanasia were performed in accordance with Johns Hopkins IACUC approved protocols. WT C57Bl/6J, Balb/cJ, and PTPN22 KO (B6.Cg-Ptpn22tm2Achn/J) mice were purchased from JAX and bred in-house. For syngeneic immunocompetent mouse models, aged-matched 8-12 week old female mice were injected with MC38 (2.5×10^5) or EG7 (2.5×10^5 for rejection and 5×10^5 for treatment) or CT26 (5×10^5) subcutaneously in the right hind limb. […] LTV1 was also dissolved in DMSO and diluted to the same final formulation for administration at 6 mg/kg/dose. Vehicle injections contained 10% DMSO and 5% cremophor-EL in PBS."}
{"smiles": "Cc1ccccc1N1C(=O)/C(=C/c2ccc(OCc3cccc(C(=O)O)c3)cc2)C(=O)NC1=S", "note": "[LTV1]", "values": [{"measurement": "MC38 tumor growth compared to vehicle", "value": "moderately decreased tumor growth"}]}
